# In the supplement of paper PMC10331698:
# ± gives the standard deviation of the averaged measurements.
# How the values were obtained:
# Assay in all cases: level (log10 ratio to DMSO vehicle control); higher = higher biomarker level / cell amount than vehicle control
# [1] = compound: FC(F)(F)C(F)(F)C(F)(F)C(F)(F)CCI [1H,1H,2H,2H-Perfluorohexyl iodide]; conditions: in DMSO
# Method: (§1)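 BioMAP Diversity Plus panel of 12 human primary cell co-culture systems (3C, 4H, LPS, SAg, BT, BF4T, BE3C, CASM3C, HDF3CGF, KF3CT, MyoF, Mphg). Compounds were added 1 h before stimulation and left for 24 h (MyoF 48 h; BT 72 h for soluble read-outs or 6 d for IgG). Biomarkers were read by ELISA, cytotoxicity by SRB, PBMC viability and proliferation by Alamar Blue. Each well value was divided by the mean of 8 DMSO control wells on the same plate and log10 transformed; duplicate blinded samples were tested at 4 concentrations.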
# [2] = compound: FC(F)(I)C(F)(F)C(F)(F)C(F)(F)C(F)(F)C(F)(F)I [1,6-Diiodoperfluorohexane]; conditions: 6700 nM; in DMSO
# Method: as §1
# Perfluoropinacol = compound: OC(C(F)(F)F)(C(F)(F)F)C(O)(C(F)(F)F)C(F)(F)F [Perfluoropinacol]; conditions: in DMSO
# Method: as §1
# [3] = compound: Cc1ccc(S(=O)(=O)OCC(F)(F)C(F)(F)C(F)(F)C(F)(F)C(F)(F)C(F)F)cc1 [1H,1H,7H-Perfluoroheptyl 4-methylbenzenesulfonate]; conditions: in DMSO
# Method: as §1
# [4] = compound: OCCCC(F)(F)C(F)(F)C(F)(F)C(F)(F)C(F)(F)C(F)(F)C(F)(F)C(F)(F)F [3-(Perfluorooctyl)propanol]; conditions: 6700 nM; in DMSO
# Method: as §1
# [5] = compound: C=CC(=O)OCC(F)(F)C(F)(F)C(F)(F)C(F)(F)C(F)(F)C(F)(F)C(F)(F)C(F)F [1H,1H,9H-Perfluorononyl acrylate]; conditions: in DMSO
# Method: as §1
# [6] = compound: OCC(F)(F)C(F)(F)C(F)(F)C(F)(F)C(F)(F)C(F)(F)F [6:1 Fluorotelomer alcohol]; conditions: in DMSO
# Method: as §1
# [7] = compound: C=CC(=O)OCC(F)(F)C(F)(F)C(F)(F)C(F)(F)COC(=O)C=C [1H,1H,6H,6H-Perfluorohexane-1,6-diol diacrylate]; conditions: 6700 nM; in DMSO
# Method: as §1
# [8] = compound: FC(F)(F)COC(OCC(F)(F)F)OCC(F)(F)F [tris(Trifluoroethoxy)methane]; conditions: in DMSO
# Method: as §1
Test System,level (log10) ([1]; 6700 nM),level (log10) ([1]; 20000 nM),level (log10) ([1]; 60000 nM),level (log10) [2],level (log10) (Perfluoropinacol; 6700 nM),level (log10) (Perfluoropinacol; 20000 nM),level (log10) ([3]; 6700 nM),level (log10) ([3]; 20000 nM),level (log10) ([3]; 60000 nM),level (log10) [4],level (log10) ([5]; 6700 nM),level (log10) ([5]; 20000 nM),level (log10) ([5]; 60000 nM),level (log10) ([6]; 6700 nM),level (log10) ([6]; 20000 nM),level (log10) ([6]; 60000 nM),level (log10) [7],level (log10) ([8]; 6700 nM),level (log10) ([8]; 20000 nM),level (log10) ([8]; 60000 nM)
HDF3CGF:Proliferation 72hr,0.0275 ± 0.025,0.0095 ± 0.076,0.006 ± 0.04,-0.919,-0.183 ± 0.044,-0.39 ± 0.05,-0.031 ± 0.011,0.0195 ± 0.036,-0.197 ± 0.11,-1.04 ± 0.033,-0.072 ± 0.079,-0.454 ± 0.021,-0.666 ± 0.15,-0.0265 ± 0.033,0.003 ± 0.011,-0.87 ± 0.098,-0.567 ± 0.013,-0.038 ± 0.081,0.001 ± 0.038,-0.006 ± 0.038
CASM3C:Serum Amyloid A,-0.017 ± 0.0042,-0.0155 ± 0.039,0.0305 ± 0.1,-0.008,0.0545 ± 0.0078,0.0595 ± 0.015,-0.0445 ± 0.021,-0.0515 ± 0.0078,0.0015 ± 0.06,-0.005 ± 0.024,-0.014 ± 0.014,-0.0825 ± 0.071,-0.067 ± 0.0071,-0.001 ± 0.013,0.01 ± 0.017,-0.052 ± 0.018,-0.0575 ± 0.0078,-0.028 ± 0.027,-0.026 ± 0.04,0.0045 ± 0.044
MyoF:SRB,0.008 ± 0.0042,0.0055 ± 0.012,0.004 ± 0.018,-0.209,-0.012,-0.0445 ± 0.0021,-0.004 ± 0.018,-0.021 ± 0.0085,-0.024 ± 0.0014,-0.017 ± 0.0014,-0.0055 ± 0.0078,-0.016 ± 0.0042,-0.0725 ± 0.019,0.003 ± 0.02,0.0015 ± 0.016,-0.089 ± 0.13,-0.0185 ± 0.013,-0.0045 ± 0.0035,-0.001 ± 0.0014,0.005 ± 0.0042
3C:CD106/VCAM-1,0.0045 ± 0.026,-0.015 ± 0.0014,-0.0145 ± 0.021,-0.043,-0.006 ± 0.02,-0.0385 ± 0.018,-0.0205 ± 0.0064,-0.0085 ± 0.0064,-0.037 ± 0.025,-0.021,-0.03,-0.022 ± 0.0057,-0.042 ± 0.02,0.006 ± 0.0071,0.013 ± 0.013,0.011 ± 0.021,-0.058 ± 0.0071,-0.002 ± 0.016,-0.0045 ± 0.019,0.0095 ± 0.0078
MyoF:Collagen I,-0.0005 ± 0.0035,0.0005 ± 0.022,0.0205 ± 0.042,-0.444,0.044,-0.006 ± 0.0099,-0.001 ± 0.0028,0.019 ± 0.0099,0.001 ± 0.016,-0.046 ± 0.024,0.0005 ± 0.023,0.0025 ± 0.00071,-0.033 ± 0.028,0 ± 0.021,-0.0005 ± 0.012,0.0015 ± 0.03,-0.01 ± 0.052,-0.006 ± 0.0085,-0.013 ± 0.017,-0.01 ± 0.0014
HDF3CGF:PAI-I,0.002 ± 0.028,0.0045 ± 0.0035,-0.0105 ± 0.044,-0.662,-0.0325 ± 0.012,-0.117 ± 0.0021,-0.004 ± 0.0042,-0.009 ± 0.011,0.0065 ± 0.036,-0.391 ± 0.07,0.0785 ± 0.076,0.025 ± 0.04,0.0165 ± 0.1,0.006 ± 0.018,0.0105 ± 0.026,-0.103 ± 0.18,-0.074 ± 0.016,-0.0115 ± 0.0021,-0.025 ± 0.023,0.0175 ± 0.018
lMphg:IL-1alpha,0.008,0.0045 ± 0.012,0.0345 ± 0.0078,0.024,0.103 ± 0.021,0.149 ± 0.067,-0.034 ± 0.017,-0.036 ± 0.042,0.033 ± 0.099,-0.0015 ± 0.03,0.006 ± 0.038,-0.0025 ± 0.054,0.0195 ± 0.063,0.007 ± 0.04,0.006 ± 0.061,0.001 ± 0.034,0.0245 ± 0.057,-0.031 ± 0.014,-0.03 ± 0.0028,-0.006 ± 0.03
HDF3CGF:MMP-1,-0.001 ± 0.0014,0.0085 ± 0.0035,0.0145 ± 0.018,-0.303,0.024 ± 0.023,0.017 ± 0.014,0.024 ± 0.0014,0.0535 ± 0.016,0.066 ± 0.0014,-0.0315 ± 0.044,0.006 ± 0.0057,0.03 ± 0.0057,0.0375 ± 0.016,0.002 ± 0.0099,0.008 ± 0.0071,-0.0355 ± 0.07,0.0075 ± 0.0021,-0.005 ± 0.0099,-0.005 ± 0.0014,0 ± 0.0085
CASM3C:CD87/uPAR,-0.0015 ± 0.018,-0.024 ± 0.051,-0.0345 ± 0.033,0.001,-0.0245 ± 0.015,-0.107 ± 0.018,-0.03 ± 0.024,-0.02 ± 0.016,-0.004 ± 0.0099,-0.021 ± 0.0085,0.0315 ± 0.005,0.017 ± 0.042,0.005 ± 0.0057,-0.004 ± 0.0071,-0.0245 ± 0.00071,-0.026 ± 0.035,-0.0235 ± 0.013,-0.0095 ± 0.018,-0.007 ± 0.023,-0.021 ± 0.0085
CASM3C:HLA-DR,-0.012 ± 0.0085,-0.017 ± 0.02,0.0265 ± 0.081,-0.006,-0.0885 ± 0.042,-0.207,-0.009 ± 0.0028,-0.021 ± 0.0014,-0.002 ± 0.0071,-0.0215 ± 0.005,-0.0945 ± 0.044,-0.04 ± 0.071,0.021 ± 0.033,0.0095 ± 0.0064,0.0135 ± 0.0021,-0.0195 ± 0.035,-0.008 ± 0.12,-0.0115 ± 0.0064,-0.007,-0.0135 ± 0.023
HDF3CGF:CXCL9/MIG,0.0105 ± 0.028,0.007 ± 0.0085,-0.096 ± 0.016,-0.463,-0.018 ± 0.018,-0.0675 ± 0.012,-0.002 ± 0.0099,0.061 ± 0.025,0.048 ± 0.037,-0.0895 ± 0.054,-0.0315 ± 0.025,-0.083 ± 0.025,-0.215 ± 0.071,-0.001 ± 0.0042,-0.012 ± 0.011,-0.0175 ± 0.0078,-1.14 ± 0.041,0.007 ± 0.0099,0.002 ± 0.0071,-0.017 ± 0.018
HDF3CGF:CXCL8/IL-8,0.003 ± 0.0057,-0.0025 ± 0.0035,0.0015 ± 0.011,-0.276,0.025 ± 0.0071,0.02 ± 0.0028,-0.0045 ± 0.011,0.0065 ± 0.0035,0.0095 ± 0.0021,-0.0145 ± 0.0092,-0.009 ± 0.0042,0.0075 ± 0.021,0.0085 ± 0.0035,0.0005 ± 0.0092,0.001 ± 0.013,-0.046 ± 0.052,-0.021 ± 0.0057,-0.003 ± 0.0028,-0.0005 ± 0.005,0.002 ± 0.0099
BE3C:MMP-9,0.0015 ± 0.05,-0.006 ± 0.028,0.029 ± 0.047,-0.008,-0.011 ± 0.0014,-0.04 ± 0.0028,0.012 ± 0.027,-0.0165 ± 0.021,-0.003 ± 0.035,0.036 ± 0.038,0.0015 ± 0.0035,-0.0185 ± 0.012,0 ± 0.021,-0.0045 ± 0.037,-0.0065 ± 0.019,0.0155 ± 0.021,-0.0435 ± 0.018,-0.005 ± 0.0028,-0.004 ± 0.0014,0.0045 ± 0.019
CASM3C:CD142/Tissue Factor,-0.019 ± 0.034,-0.0065 ± 0.0078,0.0235 ± 0.035,0.001,-0.0515 ± 0.022,-0.0235 ± 0.06,-0.038 ± 0.014,-0.057 ± 0.047,-0.0205 ± 0.03,-0.007 ± 0.054,0.0345 ± 0.026,-0.003 ± 0.061,-0.016 ± 0.0014,0.009 ± 0.017,0.0035 ± 0.0092,-0.0315 ± 0.015,-0.004 ± 0.059,0.0185 ± 0.047,-0.011 ± 0.0085,-0.0275 ± 0.016
